Test results published in patent publication US8835476B2, “Synthesis of novel antimicrobials” (priority 2005, dated 2014).
In brackets after ≈: the same amount, converted by molar mass. Like-named read-outs stand apart in the source and are kept apart here.

How the values were obtained:
Format in all cases: cell-based
[1] = test system: A. baumanii clinical isolates; assay: Broth microdilution MIC, clinical isolate strains (NAUTICA); details: Table 4B; each table row is one clinical isolate; unit assumed
Source text: (§1) All clinical isolates tested were from The North American Urinary Tract Infection Collaborative Alliance (NAUTICA) which is a UTI surveillance study involving 40 medical centres (30 from the US and 10 from Canada). Each centre submitted up to 50 consecutive outpatient midstream urine isolates. All isolates were deemed significant urinary tract pathogens by individual laboratory criteria and identified to the species level by each laboratory's existing protocol. Isolates were transported to the coordinating laboratory (Health Sciences Centre, Winnipeg, Canada) on charcoal swabs. Only one isolate per patient was accepted. Upon receipt, isolates were cultured by the coordinating laboratory, stocked in skim milk, and stored at −80° C. awaiting reference antibiotic susceptibility testing. Elementary demographic information was also compiled for each isolate. Isolates were selected randomly from the above pool to represent 18 different species of Enterobacteriaceae and non-Enterobacteriaceae. An average of 5 strains of each species were tested for a total of 93 organisms. In addition, 23 reference (ATCC) [both gram negative and gram positive] strains were tested.
(§2) Susceptibilities to the compounds were determined using the National Committee for Clinical Laboratory Standards (NCCLS) M7-A6 broth microdilution method. […] DMSO controls were incorporated into the panel to mimic the quantity of DMSO used in dissolving some of the compounds at the higher concentrations. Each final panel well volume was 100 μl with a bacterial inoculum of 5×10^5 colony forming units (CFU)/ml. Panels were read following 16 to 20 hours of incubation at 35° C. in ambient air. The minimum inhibitory concentration (MIC) was defined as the lowest concentration of antimicrobial inhibiting visible growth. Quality control (QC) was performed using four ATCC QC organisms that were run with every batch set up to insure reproducibility.

[2] = test system: P. mirabilis clinical isolates; assay: as above; details: Table 4B; each table row is one clinical isolate; unit assumed
Source text: as §1, §2

[3] = test system: K. oxytoca clinical isolates; assay: as above; details: Table 4B; each table row is one clinical isolate; unit assumed
Source text: as §1, §2

[4] = test system: M. morganii clinical isolates; assay: as above; details: Table 4B; each table row is one clinical isolate; unit assumed
Source text: as §1, §2

[5] = test system: S. marcescens clinical isolates; assay: as above; details: Table 4B; each table row is one clinical isolate; unit assumed
Source text: as §1, §2

[6] = test system: E. aerogenes clinical isolates; assay: as above; details: Table 4B; each table row is one clinical isolate; unit assumed
Source text: as §1, §2

[7] = test system: S. maltophilia clinical isolates; assay: as above; details: Table 4B; each table row is one clinical isolate; unit assumed
Source text: as §1, §2

[8] = test system: C. freundii clinical isolates; assay: as above; details: Table 4B; each table row is one clinical isolate; in µg/mL (unit assumed)
Source text: as §1, §2

[9] = test system: K. pneumoniae clinical isolates; assay: as above; details: Table 4B; each table row is one clinical isolate; unit assumed
Source text: as §1, §2

[10] = test system: C. koseril clinical isolates; assay: as above; details: Table 4B; each table row is one clinical isolate; unit assumed
Source text: as §1, §2

[11] = test system: P. vulgaris clinical isolates; assay: as above; details: Table 4B; each table row is one clinical isolate; unit assumed
Source text: as §1, §2

[12] = test system: B. cepacia clinical isolates; assay: as above; details: Table 4B; each table row is one clinical isolate; unit assumed
Source text: as §1, §2

[13] = test system: P. retgerri clinical isolates; assay: as above; details: Table 4B; each table row is one clinical isolate; unit assumed
Source text: as §1, §2

[14] = test system: E. coli clinical isolates; assay: as above; details: Table 4B; each table row is one clinical isolate; unit assumed
Source text: as §1, §2

[15] = test system: C. amalonaticus clinical isolates; assay: as above; details: Table 4B; each table row is one clinical isolate; unit assumed
Source text: as §1, §2

[16] = test system: E. cloacae clinical isolates; assay: as above; details: Table 4B; each table row is one clinical isolate; unit assumed
Source text: as §1, §2

[17] = test system: P. stuartii clinical isolates; assay: as above; details: Table 4B; each table row is one clinical isolate; unit assumed
Source text: as §1, §2

[18] = test system: S. liquifaciens clinical isolates; assay: as above; details: Table 4B; each table row is one clinical isolate; unit assumed
Source text: as §1, §2

[19] = test system: S. maltophilia ATCC 13637; assay: Broth microdilution MIC, ATCC strains; details: Stenotrophomonas maltophilia, ATCC13637; S. maltophilia ATCC 13637; read-out: MIC (growth inhibition, microdilution method)
Source text: as §1, §2

S. marcescens ATCC 8100 = assay: Broth microdilution MIC, ATCC strains; details: Serratia marcescens, ATCC8100; S. marcescens ATCC 8100; read-out: MIC (growth inhibition, microdilution method)
Source text: as §1, §2

K. oxytoca ATCC 49131 = assay: Broth microdilution MIC, ATCC strains; details: Klebsiella oxytoca, ATCC49131; K. oxytoca ATCC 49131; read-out: MIC (growth inhibition, microdilution method)
Source text: as §1, §2

MRSA ATCC 33591 = assay: Broth microdilution MIC, ATCC strains; details: Staphylococcus aureus; MRSA ATCC 33591; read-out: MIC (growth inhibition, microdilution method)
Source text: as §1, §2

[20] = test system: S. liquefaciens ATCC 27592; assay: Broth microdilution MIC, ATCC strains; details: S. liquefaciens ATCC 27592; read-out: MIC (growth inhibition, microdilution method)
Source text: as §1, §2

[21] = test system: S. saprophyticus ATCC 15305; assay: Broth microdilution MIC, ATCC strains; details: Staphylococcus saprophyticus, ATCC15305; S. saprophyticus ATCC 15305; read-out: MIC (growth inhibition, microdilution method)
Source text: as §1, §2

E. coli ATCC 25922 = assay: Broth microdilution MIC, ATCC strains; details: Escherichia coli, ATCC25922, E. coli ATCC 25922; read-out: MIC (growth inhibition, microdilution method)
Source text: as §1, §2

S. simulans ATCC 27848 = assay: Broth microdilution MIC, ATCC strains; details: Staphylococcus simulans, ATCC27848, read-out: MIC (growth inhibition, microdilution method)
Source text: as §1, §2

S. aureus ATCC 29213 = assay: Broth microdilution MIC, ATCC strains; details: for MIC: Staphylococcus aureus, ATCC29213, S. aureus ATCC 29213, read-out: MIC (growth inhibition, microdilution method)
Source text: as §1, §2

E. faecalis ATCC 29212 = assay: Broth microdilution MIC, ATCC strains; details: for MIC: Enterococcus faecalis, read-out: MIC (growth inhibition, microdilution method)
Source text: as §1, §2

K. pneumoniae ATCC 13883 = assay: Broth microdilution MIC, ATCC strains; details: Klebsiella pneumoniae, ATCC13883; K. pneumoniae ATCC 13883; read-out: MIC (growth inhibition, microdilution method)
Source text: as §1, §2

[22] = test system: S. epidermidis ATCC 14990; assay: Broth microdilution MIC, ATCC strains; details: Staphylococcus epidermidis, ATCC14990; S. epidermidis ATCC 14990; read-out: MIC (growth inhibition, microdilution method)
Source text: as §1, §2

P. rettgeri CAP = assay: Broth microdilution MIC, reference strains; details: Providencia rettgeri; P. rettgeri (CAP in Table 1); read-out: MIC (growth inhibition, microdilution method)
Source text: as §1, §2

[23] = ATCC29212, E. faecalis ATCC 29212
[24] = ATCC29212, E. faecalis, ATCC number not given

SMILES	MIC, A. BAUMANII [1] [µg/mL]	MIC, P. MIRABILIS [2] [µg/mL]	MIC, K. OXYTOCA [3] [µg/mL]	MIC, M. MORGANII [4] [µg/mL]	MIC, S. MARCESCENS [5] [µg/mL]	MIC, E. AEROGENES [6] [µg/mL]	MIC, S. MALTOPHILIA [7] [µg/mL]	MIC, C. FREUNDII [8]	MIC, K. PNEUMONIAE [9] [µg/mL]	MIC, C. KOSERI [10] [µg/mL]	MIC, P. VULGARIS [11] [µg/mL]	MIC, B. CEPACIA [12] [µg/mL]	MIC, P. RETTGERI [13] [µg/mL]	MIC, E. COLI [14] [µg/mL]	MIC, C. AMALONATICUS [15] [µg/mL]	MIC, E. CLOACAE [16] [µg/mL]	MIC, P. STUARTII [17] [µg/mL]	MIC, S. LIQUEFACIENS [18] [µg/mL]	MIC [19] [µg/mL]	MIC (S. marcescens ATCC 8100) [µg/mL]	also measured
CCOC(=O)c1cc(-c2nnn(C)n2)c(-c2ccc(F)cc2)s1 [DNM-125, ethyl 5-(4-fluorophenyl)-4-(2-methyl-2H-tetrazol-5-yl)thiophene-2-carboxylate]	> 16	> 16	> 16	> 16	> 16	> 16	> 16	>16	> 16	> 16	> 16	> 16	> 16	> 16	> 16	> 16	> 16	> 16	> 16	> 16	MIC (K. oxytoca ATCC 49131): > 16 µg/mL; MIC (MRSA ATCC 33591): > 16 µg/mL; MIC [20]: > 16 µg/mL; MIC [21]: > 16 µg/mL; MIC (E. coli ATCC 25922): > 16 µg/mL; MIC (S. simulans ATCC 27848): > 16 µg/mL; MIC (S. aureus ATCC 29213): > 16 µg/mL; MIC (E. faecalis ATCC 29212; [23]): > 16 µg/mL; MIC (E. faecalis ATCC 29212; [24]): > 16 µg/mL; MIC (K. pneumoniae ATCC 13883): > 16 µg/mL; MIC [22]: > 16 µg/mL; MIC (P. rettgeri CAP): > 16 µg/mL
Fc1ccc(-c2cc(-c3nnn[nH]3)c(-c3ccc(F)cc3)s2)cc1 [DNM-131, 5-(2,5-Bis(4-fluorophenyl)thiophen-3-yl)-1H-tetrazole]	> 32	> 32	> 32	> 32	> 32	> 32	> 32	>32	> 32	> 32	> 32	> 32	> 32	> 32	> 32	> 32	> 32	> 32	> 32	> 32	MIC (K. oxytoca ATCC 49131): > 32 µg/mL; MIC (MRSA ATCC 33591): > 32 µg/mL; MIC [20]: > 32 µg/mL; MIC [21]: > 32 µg/mL; MIC (E. coli ATCC 25922): > 32 µg/mL; MIC (S. simulans ATCC 27848): > 32 µg/mL; MIC (growth inhibition, microdilution method) (S. aureus ATCC 29213; S. aureus ATCC 29213): >32 µg/mL; MIC (S. aureus ATCC 29213): 32 µg/mL (≈ 94 µM); MIC (growth inhibition, microdilution method) (E. faecalis ATCC 29212; E. faecalis, ATCC number not given): >32 µg/mL; MIC (E. faecalis ATCC 29212; [23]): > 32 µg/mL; MIC (E. faecalis ATCC 29212; [24]): 32 µg/mL (≈ 94 µM); MIC (K. pneumoniae ATCC 13883): > 32 µg/mL; MIC [22]: > 32 µg/mL; MIC (P. rettgeri CAP): > 32 µg/mL
Cn1nnc(-c2cc(-c3ccc(F)cc3)sc2-c2ccc(F)cc2)n1 [DNM-132, 5-(2,5-bis(4-fluorophenyl)thiophen-3-yl)-2-methyl-2H-tetrazole]	> 16	> 16	> 16	> 16	> 16	> 16	> 16	>16	> 16	> 16	> 16	> 16	> 16	> 16	> 16	> 16	> 16	> 16	> 16	> 16	MIC (K. oxytoca ATCC 49131): > 16 µg/mL; MIC (MRSA ATCC 33591): > 16 µg/mL; MIC [20]: > 16 µg/mL; MIC [21]: > 16 µg/mL; MIC (E. coli ATCC 25922): > 16 µg/mL; MIC (S. simulans ATCC 27848): > 16 µg/mL; MIC (S. aureus ATCC 29213): > 16 µg/mL; MIC (E. faecalis ATCC 29212; [23]): > 16 µg/mL; MIC (E. faecalis ATCC 29212; [24]): > 16 µg/mL; MIC (K. pneumoniae ATCC 13883): > 16 µg/mL; MIC [22]: > 16 µg/mL; MIC (P. rettgeri CAP): > 16 µg/mL
